Data set [1] has as its system Mus musculus. As to the kind of experiment: Toxicity in Swiss mouse assessed as occurrence of mydriasis at 30 mg/kg, ip up to 24 hrs. The class given is organism-based. To be noted: in vivo. Further details: dose 30 mg/kg, route intraperitoneal.
In data set [2] the test system is Cavia porcellus. As to the kind of experiment: Inhibition of acetylcholine-induced bronchoconstriction in Dunkin-Hartley guinea pig assessed as time taken to recover 50% of maximum inhibitory effect at 3 mg/mL administered as nebulized solution. It counts as functional.
The target of data set [3] is T1, Muscarinic acetylcholine receptor M3 (Homo sapiens, UniProt P20309). As to the kind of experiment: Displacement of [3H]NMS from human muscarinic M3 receptor expressed in CHOK1 cells by microplate scintillation counting. It counts as cell-based, CHO-K1. A general note: Loss of bound radioactivity is the signal in a displacement assay; it reports binding, not function.
T1 sequence (P20309 whole entry): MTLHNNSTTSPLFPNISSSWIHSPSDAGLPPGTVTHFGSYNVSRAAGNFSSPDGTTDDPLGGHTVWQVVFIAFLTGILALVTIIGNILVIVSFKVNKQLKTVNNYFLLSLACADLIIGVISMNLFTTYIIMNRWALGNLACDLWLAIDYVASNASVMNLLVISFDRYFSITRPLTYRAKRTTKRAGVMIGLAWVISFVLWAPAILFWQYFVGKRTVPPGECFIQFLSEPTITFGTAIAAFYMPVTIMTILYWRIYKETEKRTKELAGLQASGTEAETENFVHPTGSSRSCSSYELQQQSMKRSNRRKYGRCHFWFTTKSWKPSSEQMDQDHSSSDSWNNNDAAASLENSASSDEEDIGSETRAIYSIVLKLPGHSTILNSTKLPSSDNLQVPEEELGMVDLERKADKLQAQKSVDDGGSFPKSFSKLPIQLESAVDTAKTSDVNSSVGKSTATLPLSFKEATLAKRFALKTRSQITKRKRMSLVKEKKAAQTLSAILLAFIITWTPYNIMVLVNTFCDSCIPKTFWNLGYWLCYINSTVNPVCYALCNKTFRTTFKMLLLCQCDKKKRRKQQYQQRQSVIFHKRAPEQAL

Data set [4] concerns the target T2, Muscarinic acetylcholine receptor M1 (Homo sapiens, UniProt P11229).
T2 sequence (P11229 whole entry): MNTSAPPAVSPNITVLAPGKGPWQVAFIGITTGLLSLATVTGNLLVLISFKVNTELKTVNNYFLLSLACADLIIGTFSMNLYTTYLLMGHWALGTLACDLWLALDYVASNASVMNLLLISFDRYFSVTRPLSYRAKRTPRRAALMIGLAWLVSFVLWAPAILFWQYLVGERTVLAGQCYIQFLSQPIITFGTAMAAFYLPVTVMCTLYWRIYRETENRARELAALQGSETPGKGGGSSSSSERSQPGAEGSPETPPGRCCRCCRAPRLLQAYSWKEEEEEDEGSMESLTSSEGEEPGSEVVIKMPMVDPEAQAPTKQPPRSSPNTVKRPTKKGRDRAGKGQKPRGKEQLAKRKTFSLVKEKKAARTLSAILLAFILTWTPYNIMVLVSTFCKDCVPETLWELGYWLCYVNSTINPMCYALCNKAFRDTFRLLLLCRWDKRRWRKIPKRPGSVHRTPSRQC
As to the kind of experiment: Displacement of [3H]NMS from human muscarinic M1 receptor expressed in CHOK1 cells by microplate scintillation counting. The class given is cell-based, CHO-K1.

The test system of data set [5] is Mus musculus. As to the kind of experiment: Toxicity in Swiss mouse assessed as neurobiological state and occurrence of xerostomia at 30 mg/kg, ip up to 24 hrs. The class given is organism-based. Also noted: dose 30 mg/kg, route intraperitoneal. To be noted: in vivo.
For data set [6], the target named is T3, Muscarinic acetylcholine receptor M2 (Homo sapiens, UniProt P08172).
T3 sequence (P08172 whole entry): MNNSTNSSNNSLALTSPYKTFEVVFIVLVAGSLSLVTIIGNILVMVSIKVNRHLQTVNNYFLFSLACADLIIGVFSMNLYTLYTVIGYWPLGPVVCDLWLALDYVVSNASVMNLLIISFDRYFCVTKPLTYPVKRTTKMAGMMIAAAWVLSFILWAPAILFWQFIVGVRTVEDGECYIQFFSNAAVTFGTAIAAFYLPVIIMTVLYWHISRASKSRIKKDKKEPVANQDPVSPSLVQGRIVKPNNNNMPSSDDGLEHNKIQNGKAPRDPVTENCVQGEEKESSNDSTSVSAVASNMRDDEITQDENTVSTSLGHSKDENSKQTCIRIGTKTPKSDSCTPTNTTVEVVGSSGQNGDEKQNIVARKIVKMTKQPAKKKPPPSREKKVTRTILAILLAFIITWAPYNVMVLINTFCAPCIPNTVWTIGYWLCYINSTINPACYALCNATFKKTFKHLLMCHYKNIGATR
As to the kind of experiment: Displacement of [3H]NMS from human muscarinic M2 receptor expressed in CHOK1 cells by microplate scintillation counting. The class given is cell-based, CHO-K1.

For data set [7], the system named is Cavia porcellus. As to the kind of experiment: Inhibition of acetylcholine-induced bronchoconstriction in Dunkin-Hartley guinea pig assessed as time taken to recover 50% of maximum inhibitory effect at 1 mg/mL administered as nebulized solution. The class given is functional.
Data set [8] concerns the target T1, Muscarinic acetylcholine receptor M3.
Description: Binding affinity to muscarinic M3 receptor
The target of data set [9] is T3, Muscarinic acetylcholine receptor M2. As to the kind of experiment: Binding affinity to muscarinic M2 receptor.
For data set [10], the target named is T2, Muscarinic acetylcholine receptor M1. As to the kind of experiment: Binding affinity to muscarinic M1 receptor.
The nature of data set [11]: Metabolic stability in human plasma assessed as elimination half life at pH 7.4. It counts as ADME, cell-free. To be noted: read-out: beta t1/2.
Data set [12] is described as follows: Chemical stability assessed as half life at pH 7.4 by UV-HPLC analysis. It counts as physicochemical. To be noted: buffer.
The subject of data set [13] is Cavia porcellus. As to the kind of experiment: Inhibition of acetylcholine-induced bronchoconstriction in Dunkin-Hartley guinea pig administered as nebulized solution. The class given is functional, organism-based.
In data set [14] the test system is Cavia porcellus. As to the kind of experiment: Inhibition of acetylcholine-induced bronchoconstriction in Dunkin-Hartley guinea pig assessed as time taken to recover 50% of maximum inhibitory effect at 1 mg/mL administered as nebulized solution.

Structures are written as SMILES. A value given as a limit tells only on which side of the number the result lay.

Broadly, the IC50 is the midpoint of a concentration-inhibition curve. A higher IC50 goes with weaker potency. As usually defined, the Ki is a dissociation constant, usually derived from enzyme kinetics or from competition with a known ligand.

For `CC(C)[N+]1(C)C2CCC1CC(OC(=O)C(CO)c1ccccc1)C2.O.[Br-]` (stereo unspecified), in the data set on Mus musculus [1], the Activity entry is “Toxic”.
Consider `O=C(O[C@H]1C[N+]2(CCCOc3ccccc3)CCC1CC2)[C@@](O)(c1cccs1)C1CCCC1.[Br-]`, for which the Time in the data set with Cavia porcellus [2] was over 6 h. For the same molecule, the IC50 stood at 1.62 nM in data set [3], 0.81 nM in data set [4] and 1.01 nM in data set [6]. Further, the Activity result in the data set with Mus musculus [5] was “Non-toxic”.
`O=C(O[C@H]1C[N+]2(CCCOc3ccccc3)CCC1CC2)C(c1cccs1)c1cccs1.[Br-]`: the values for the IC50 in data set [3], in [4] and in [6] were 0.37 nM, 0.34 nM and 0.35 nM, respectively. In addition, in the data set with Mus musculus [5], the Activity result is “Non-toxic”.
As to `O=C(O[C@H]1C[N+]2(CCCOc3ccccc3)CCC1CC2)C(O)(c1ccsc1)c1ccsc1.[Br-]`, the IC50 in data set [3] is 0.24 nM; in [4] it was 0.23 nM; in data set [6], 0.18 nM. The Activity result in the data set on Mus musculus [5] is “Non-toxic”.
`O=C(O[C@H]1C[N+]2(CCCOc3ccccc3)CCC1CC2)C(O)(c1ccccc1)c1ccccc1.[Br-]`: in the data set with Cavia porcellus [2], the Time was over 6 h. The same molecule had an IC50 in data set [4] of 0.31 nM. Also, the Activity result with Mus musculus [5] is “Non-toxic”.
As to `O=C(O[C@H]1C[N+]2(CCCCc3ccccc3)CCC1CC2)C(O)(c1cccs1)c1cccs1.[Br-]`, the Time with Cavia porcellus [2] and with Cavia porcellus [7] was 6 h throughout. The values for the IC50 in data set [3], in data set [4] and in data set [6] were 0.45 nM, 0.29 nM and 0.38 nM, respectively. For the same molecule, the Activity entry with Mus musculus [5] was “Non-toxic”.
Take `CC1(C(=O)O[C@H]2C[N+]3(CCCOc4ccccc4)CCC2CC3)c2ccccc2Oc2ccccc21.[Br-]`: the IC50 in [4] stood at 0.28 nM; in [6], 0.27 nM. In addition, the Activity result in the data set on Mus musculus [5] is recorded as “Non-toxic”.
With `O=C(O[C@H]1C[N+]2(CCCOc3ccccc3)CCC1CC2)[C@@](O)(c1ccccc1)c1cccs1.[Br-]`, the IC50 in [3] came out at 0.25 nM; in data set [4], 0.16 nM; in data set [6], 0.17 nM. Further, the Activity result in the data set on Mus musculus [5] is “Non-toxic”.
Take `O=C(O[C@H]1C[N+]2(CCCOc3ccccc3)CCC1CC2)[C@](O)(c1cccs1)C1CCCC1.[Br-]`: the inhibitory constant (Ki) worked out at 0.07 nM in [8], 0.06 nM in [9] and 0.09 nM in [10]. The Time with Cavia porcellus [2] and in the data set with Cavia porcellus [7] was over 6 h throughout. For the same molecule, the IC50 in [3] is 0.18 nM; in data set [4], 0.15 nM; in [6], 0.14 nM. Further, the half-life in data set [11] and in [12] was over 1 h in each case. Besides, the Activity result in the data set with Mus musculus [5] is on record as “Non-toxic”; in the data set on Mus musculus [1], “Toxic”.
For `O=C(O[C@H]1C[N+]2(CCc3ccccc3)CCC1CC2)C1c2ccccc2Oc2ccccc21.[Br-]`, the Time with Cavia porcellus [7] is over 6 h. The half-inhibitory concentration (IC50) in [3] was determined as 0.31 nM; in [4] it was 0.44 nM; in [6], 1.82 nM. In the data set with Mus musculus [5], the Activity result is reported as “Non-toxic”.
As to `CC1(C(=O)O[C@H]2C[N+]3(CCCOc4ccccc4)CCC2CC3)c2ccccc2-c2ccccc21.[Br-]`, the results for the IC50 in data set [3], in data set [4] and in data set [6] were 0.96 nM, 1.26 nM and 2.1 nM, respectively. Also, in the data set on Mus musculus [5], the Activity entry is listed as “Non-toxic”.
For `CC(C(=O)O[C@H]1C[N+]2(CCCOc3ccccc3)CCC1CC2)(c1cccs1)c1cccs1.[Br-]` the same measures were 0.59 nM, 0.6 nM, 0.73 nM and “Non-toxic”.
`O=C(O[C@H]1C[N+]2(CCCOc3ccccc3)CCC1CC2)C1(O)c2ccccc2-c2ccccc21.[Br-]`: the Time in the data set on Cavia porcellus [2] was over 6 h. Also, the IC50 in data set [3] was determined as 0.71 nM; in data set [4], 0.63 nM; in data set [6], 1.08 nM. In addition, the Activity entry in the data set with Mus musculus [5] was “Non-toxic”.
In the case of `O=C(O[C@H]1C[N+]2(CCc3ccccc3)CCC1CC2)C1(O)c2ccccc2-c2ccccc21.[Br-]`, the Time in the data set on Cavia porcellus [7] is over 6 h. Also, the results for the IC50 in [3], in data set [4] and in data set [6] were 1.04 nM, 1.12 nM and 2.24 nM, respectively. Moreover, the Activity entry in the data set on Mus musculus [5] is reported as “Non-toxic”.
`O=C(O[C@H]1C[N+]2(CCCOc3ccccc3)CCC1CC2)C1(O)c2ccccc2Oc2ccccc21.[Br-]`: in the data set on Cavia porcellus [7], the Time is over 6 h. The IC50 in [3] is 1.04 nM; in data set [4], 0.23 nM; in [6] it was 0.36 nM. Besides, the Activity entry in the data set on Mus musculus [5] is reported as “Non-toxic”.
For `O=C(O[C@H]1C[N+]2(CCc3ccccc3)CCC1CC2)C1(O)c2ccccc2Oc2ccccc21.[Br-]`, in that order: over 6 h, 0.28 nM, 0.29 nM, 0.54 nM and “Non-toxic”.
With `O=C(O[C@H]1C[N+]2(CCCOc3ccccc3)CCC1CC2)[C@](O)(c1ccccc1)c1cccs1.[Br-]`, the IC50 came to 0.48 nM in data set [3], 0.38 nM in [4] and 0.31 nM in [6]. In the data set on Mus musculus [5], the Activity result was “Non-toxic”.
In the case of `O=C(O[C@H]1C[N+]2(CCCOc3ccccc3)CCC1CC2)C(O)(c1cccs1)c1cccs1.[Br-]` [ACLIDINIUM BROMIDE], the IC50 came out at 140 mg/L in the data set on Cavia porcellus [13] and 0.14 nM in [4]. The Ki in data set [10] was determined as 0.08 nM. Further, the Time in the data set with Cavia porcellus [14] and in the data set on Cavia porcellus [7] was over 6 h each time. Also, the half-life in data set [11] was determined as 0.0367 h; in data set [12], 1 h. The Activity entry in the data set with Mus musculus [5] and with Mus musculus [1] was “Non-toxic” in each case.
For `C[N+]1(C)[C@@H]2C[C@@H](OC(=O)C(O)(c3cccs3)c3cccs3)C[C@H]1[C@@H]1O[C@@H]12.O.[Br-]` [TIOTROPIUM BROMIDE], inhibition with Cavia porcellus [13] was half-maximal at 45 mg/L (IC50). Further, in the data set on Cavia porcellus [7], the Time is over 6 h. Further, in the data set on Mus musculus [1], the Activity entry is “Toxic”.

The record behind these values is ChEMBL document CHEMBL1152978 (J Med Chem, 2009).
